Results on 4 molecules are retold here after ChEMBL document CHEMBL1201862, “PubChem BioAssay data set” (2004).

The source made the active and inactive calls.

Holding throughout (format): functional
For test [1], the target named is Serine/threonine-protein kinase pim-3 (Homo sapiens, UniProt Q86V86).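 Also: value obtained as one member of a broad kinase panel profiling effort.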
The target of test [2] is Dual specificity tyrosine-phosphorylation-regulated kinase 4 (Homo sapiens, UniProt Q9NR20).
In test [3] the target is T1, Serine/threonine-protein kinase D3 (Homo sapiens, UniProt O94806).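 Also: determined within a kinase panel screen, with PRKCN as the panel member.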
T1 sequence (O94806 whole entry): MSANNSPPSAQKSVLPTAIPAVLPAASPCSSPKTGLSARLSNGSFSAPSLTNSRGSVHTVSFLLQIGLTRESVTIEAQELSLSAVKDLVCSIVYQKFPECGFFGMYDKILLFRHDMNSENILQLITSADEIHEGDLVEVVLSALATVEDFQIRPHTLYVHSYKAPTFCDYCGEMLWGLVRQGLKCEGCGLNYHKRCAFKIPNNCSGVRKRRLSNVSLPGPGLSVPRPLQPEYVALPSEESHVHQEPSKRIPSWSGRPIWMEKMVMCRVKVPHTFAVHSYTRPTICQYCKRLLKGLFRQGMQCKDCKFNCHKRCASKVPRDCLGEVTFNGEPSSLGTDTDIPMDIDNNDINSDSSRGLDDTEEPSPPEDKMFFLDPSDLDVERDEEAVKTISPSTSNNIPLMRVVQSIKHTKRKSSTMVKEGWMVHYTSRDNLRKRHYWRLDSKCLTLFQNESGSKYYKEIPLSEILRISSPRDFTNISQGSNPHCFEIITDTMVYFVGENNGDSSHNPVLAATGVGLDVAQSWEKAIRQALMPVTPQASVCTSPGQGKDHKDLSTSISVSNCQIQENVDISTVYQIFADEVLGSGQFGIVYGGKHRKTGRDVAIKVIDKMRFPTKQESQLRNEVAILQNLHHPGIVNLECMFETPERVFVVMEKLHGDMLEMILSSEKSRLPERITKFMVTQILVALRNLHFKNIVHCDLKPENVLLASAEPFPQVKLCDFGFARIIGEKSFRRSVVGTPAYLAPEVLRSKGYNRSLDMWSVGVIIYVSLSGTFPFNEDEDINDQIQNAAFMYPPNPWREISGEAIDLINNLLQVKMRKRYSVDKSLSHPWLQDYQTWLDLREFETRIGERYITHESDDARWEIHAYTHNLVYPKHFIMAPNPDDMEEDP

Test [4] concerns the target Receptor tyrosine-protein kinase erbB-4 (Homo sapiens, UniProt Q15303).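 Also: ERBB4 member of a kinome-wide kinase profiling panel.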
The target of the next test is SRSF protein kinase 1 (Homo sapiens, UniProt Q96SB4).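 Also: measured as one member of a kinome-wide kinase profiling panel.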
Test [5] addresses Tyrosine-protein kinase Blk (Homo sapiens, UniProt P51451).
Test [6] has as its target Homeodomain-interacting protein kinase 4 (Homo sapiens, UniProt Q8NE63).
Test [7] concerns the target Lymphokine-activated killer T-cell-originated protein kinase (Homo sapiens, UniProt Q96KB5).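 Also: value comes from a kinase panel screen in which TOPK was one of the panel members.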
Test [8] addresses 3-phosphoinositide-dependent protein kinase 1 (Homo sapiens, UniProt O15530).
Test [9] has as its target Tyrosine-protein kinase Srms (Homo sapiens, UniProt Q9H3Y6).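 Also: SRMS measured as one member of a kinome-wide kinase profiling panel.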
Test [10] concerns the target Proto-oncogene tyrosine-protein kinase ROS (Homo sapiens, UniProt P08922).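 Also: ROS1 tested as one member of a kinome-wide kinase panel.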
Test [11] concerns the target Serine/threonine-protein kinase PAK 1 (Homo sapiens, UniProt Q13153).
Test [12] has as its target Serine/threonine-protein kinase DCLK1 (Homo sapiens, UniProt O15075).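 Also: affinity for DCLK1 (listed as DCAMKL1) measured as one member of a kinome-wide kinase profiling panel.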
Test [13] deals with Serine/threonine-protein kinase PAK 4 (Homo sapiens, UniProt O96013).
Chain of Serine/threonine-protein kinase PAK 4 (O96013 whole entry): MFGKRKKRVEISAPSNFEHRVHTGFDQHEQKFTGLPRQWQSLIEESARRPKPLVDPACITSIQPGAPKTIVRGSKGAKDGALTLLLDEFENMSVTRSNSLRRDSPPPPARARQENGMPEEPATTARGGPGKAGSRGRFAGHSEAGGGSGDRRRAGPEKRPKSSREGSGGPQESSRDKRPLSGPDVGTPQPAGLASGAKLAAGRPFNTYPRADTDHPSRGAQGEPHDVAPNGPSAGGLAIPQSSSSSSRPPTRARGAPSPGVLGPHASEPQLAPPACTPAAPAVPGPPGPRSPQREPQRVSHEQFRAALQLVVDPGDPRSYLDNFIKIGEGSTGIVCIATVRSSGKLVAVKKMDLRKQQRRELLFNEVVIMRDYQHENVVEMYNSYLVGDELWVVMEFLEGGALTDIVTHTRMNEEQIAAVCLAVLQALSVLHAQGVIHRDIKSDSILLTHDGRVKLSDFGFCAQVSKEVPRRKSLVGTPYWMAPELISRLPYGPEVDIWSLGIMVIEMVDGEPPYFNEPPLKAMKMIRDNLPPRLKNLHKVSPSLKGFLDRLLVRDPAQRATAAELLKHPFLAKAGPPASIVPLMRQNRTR
In test [14] the target is T2, Testis-specific serine/threonine-protein kinase 2 (Homo sapiens, UniProt Q96PF2).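 Also: part of the Navigating the Kinome panel, target entry STK22B.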
T2 sequence (Q96PF2 whole entry): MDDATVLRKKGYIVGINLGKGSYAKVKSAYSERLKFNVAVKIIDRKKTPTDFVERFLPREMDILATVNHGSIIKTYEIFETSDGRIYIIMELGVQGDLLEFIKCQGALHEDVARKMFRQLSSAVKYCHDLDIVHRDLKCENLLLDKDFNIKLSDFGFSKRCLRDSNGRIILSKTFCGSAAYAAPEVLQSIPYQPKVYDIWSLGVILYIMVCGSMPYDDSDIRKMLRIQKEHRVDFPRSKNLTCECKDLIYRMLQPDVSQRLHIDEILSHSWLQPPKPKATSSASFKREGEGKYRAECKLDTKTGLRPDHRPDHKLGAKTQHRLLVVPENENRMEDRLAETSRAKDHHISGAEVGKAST

Test [15] has as its target Ribosomal protein S6 kinase alpha-3 (Homo sapiens, UniProt P51812).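 Also: measured within a kinome-wide profiling panel.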
Test [16] concerns the target Serine/threonine-protein kinase PLK3 (Homo sapiens, UniProt Q9H4B4).
In test [17] the target is Serine/threonine-protein kinase Nek2 (Homo sapiens, UniProt P51955).
The target in test [18] is Protein kinase C theta type (Homo sapiens, UniProt Q04759). Briefly: Navigating the Kinome. Panel member name: PRKCQ.
Test [19] deals with Serine/threonine-protein kinase TBK1 (Homo sapiens, UniProt Q9UHD2). Description: Navigating the Kinome. Panel member name: TBK1.
Test [20] deals with Macrophage-stimulating protein receptor (Homo sapiens, UniProt Q04912). Briefly: Navigating the Kinome. Panel member name: MST1R.
In test [21] the target is Leucine-rich repeat serine/threonine-protein kinase 2 (Homo sapiens, UniProt Q5S007).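 Also: value from a broad kinome-wide panel profiling study in which LRRK2 was one of the kinases tested.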
The next test concerns the target Activin receptor type-1 (Homo sapiens, UniProt Q04771). Description: Navigating the Kinome. Panel member name: ACVR1.
Test [22] concerns the target Inhibitor of nuclear factor kappa-B kinase subunit epsilon (Homo sapiens, UniProt Q14164). Description: Navigating the Kinome. Panel member name: IKBKE.
The next test concerns the target Aurora kinase A (Homo sapiens, UniProt O14965).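 Also: value from the Navigating the Kinome kinase panel profiling, panel entry STK6.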
In test [23] the target is Rho-associated protein kinase 1 (Homo sapiens, UniProt Q13464).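 Also: measured within a broad kinome-wide panel profiling many kinases.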
Chain of Rho-associated protein kinase 1 (Q13464 whole entry): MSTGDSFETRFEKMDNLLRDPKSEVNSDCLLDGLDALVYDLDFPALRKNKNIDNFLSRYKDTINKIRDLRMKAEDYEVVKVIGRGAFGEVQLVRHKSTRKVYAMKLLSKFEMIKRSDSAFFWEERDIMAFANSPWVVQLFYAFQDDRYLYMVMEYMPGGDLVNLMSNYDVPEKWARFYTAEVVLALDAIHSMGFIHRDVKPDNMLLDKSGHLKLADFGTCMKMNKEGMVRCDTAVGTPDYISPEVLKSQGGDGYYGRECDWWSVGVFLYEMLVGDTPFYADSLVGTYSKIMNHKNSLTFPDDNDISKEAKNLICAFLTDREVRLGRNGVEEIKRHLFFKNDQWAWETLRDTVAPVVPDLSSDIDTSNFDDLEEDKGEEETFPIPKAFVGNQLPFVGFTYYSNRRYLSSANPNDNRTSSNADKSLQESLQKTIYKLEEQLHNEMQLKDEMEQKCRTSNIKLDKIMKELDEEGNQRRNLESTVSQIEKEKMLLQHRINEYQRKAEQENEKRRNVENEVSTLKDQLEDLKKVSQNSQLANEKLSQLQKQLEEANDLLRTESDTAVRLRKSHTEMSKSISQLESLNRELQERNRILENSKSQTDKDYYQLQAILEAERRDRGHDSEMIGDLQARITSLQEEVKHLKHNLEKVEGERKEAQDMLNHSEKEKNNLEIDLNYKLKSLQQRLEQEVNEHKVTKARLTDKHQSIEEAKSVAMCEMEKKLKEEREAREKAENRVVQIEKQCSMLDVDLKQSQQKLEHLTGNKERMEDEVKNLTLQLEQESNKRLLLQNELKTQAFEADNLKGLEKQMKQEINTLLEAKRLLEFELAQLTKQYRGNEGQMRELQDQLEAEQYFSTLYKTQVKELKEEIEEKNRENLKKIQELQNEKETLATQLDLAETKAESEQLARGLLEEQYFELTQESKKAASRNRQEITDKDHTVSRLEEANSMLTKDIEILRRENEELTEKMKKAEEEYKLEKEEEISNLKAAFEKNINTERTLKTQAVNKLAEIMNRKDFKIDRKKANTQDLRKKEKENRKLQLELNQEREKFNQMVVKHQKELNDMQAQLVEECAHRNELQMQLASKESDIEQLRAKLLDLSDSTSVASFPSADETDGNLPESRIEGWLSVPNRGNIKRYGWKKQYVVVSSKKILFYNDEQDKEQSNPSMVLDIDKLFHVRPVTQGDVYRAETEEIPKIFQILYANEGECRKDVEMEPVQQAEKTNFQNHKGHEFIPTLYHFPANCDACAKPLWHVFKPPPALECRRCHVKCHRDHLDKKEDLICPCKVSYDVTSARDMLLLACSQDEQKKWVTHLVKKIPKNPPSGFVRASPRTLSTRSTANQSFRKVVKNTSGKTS
The target in test [24] is Dual specificity mitogen-activated protein kinase kinase 1 (Homo sapiens, UniProt Q02750). Briefly: Navigating the Kinome. Panel member name: MAP2K1.
For test [25], the target named is Cyclin-dependent kinase 9 (Homo sapiens, UniProt P50750).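 Also: value from the CDK9 entry of a kinome-spanning kinase panel.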
Test [26] concerns the target Dual specificity protein kinase CLK4 (Homo sapiens, UniProt Q9HAZ1).

Chain of Tyrosine-protein kinase Blk (P51451 whole entry): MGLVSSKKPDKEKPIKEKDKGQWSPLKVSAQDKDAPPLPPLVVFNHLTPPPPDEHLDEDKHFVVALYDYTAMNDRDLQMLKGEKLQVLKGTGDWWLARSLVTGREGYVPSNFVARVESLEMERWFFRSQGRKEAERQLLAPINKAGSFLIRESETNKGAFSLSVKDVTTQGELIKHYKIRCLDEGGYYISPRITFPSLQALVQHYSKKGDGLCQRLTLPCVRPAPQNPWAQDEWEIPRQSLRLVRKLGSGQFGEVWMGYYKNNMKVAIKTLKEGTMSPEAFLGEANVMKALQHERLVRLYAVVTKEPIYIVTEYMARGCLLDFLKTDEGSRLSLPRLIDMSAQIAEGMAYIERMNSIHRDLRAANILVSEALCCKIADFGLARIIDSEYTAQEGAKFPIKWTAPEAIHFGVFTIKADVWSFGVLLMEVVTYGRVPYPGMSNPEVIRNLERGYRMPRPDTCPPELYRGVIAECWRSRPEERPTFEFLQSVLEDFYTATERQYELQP
Chain of Proto-oncogene tyrosine-protein kinase ROS (P08922 whole entry): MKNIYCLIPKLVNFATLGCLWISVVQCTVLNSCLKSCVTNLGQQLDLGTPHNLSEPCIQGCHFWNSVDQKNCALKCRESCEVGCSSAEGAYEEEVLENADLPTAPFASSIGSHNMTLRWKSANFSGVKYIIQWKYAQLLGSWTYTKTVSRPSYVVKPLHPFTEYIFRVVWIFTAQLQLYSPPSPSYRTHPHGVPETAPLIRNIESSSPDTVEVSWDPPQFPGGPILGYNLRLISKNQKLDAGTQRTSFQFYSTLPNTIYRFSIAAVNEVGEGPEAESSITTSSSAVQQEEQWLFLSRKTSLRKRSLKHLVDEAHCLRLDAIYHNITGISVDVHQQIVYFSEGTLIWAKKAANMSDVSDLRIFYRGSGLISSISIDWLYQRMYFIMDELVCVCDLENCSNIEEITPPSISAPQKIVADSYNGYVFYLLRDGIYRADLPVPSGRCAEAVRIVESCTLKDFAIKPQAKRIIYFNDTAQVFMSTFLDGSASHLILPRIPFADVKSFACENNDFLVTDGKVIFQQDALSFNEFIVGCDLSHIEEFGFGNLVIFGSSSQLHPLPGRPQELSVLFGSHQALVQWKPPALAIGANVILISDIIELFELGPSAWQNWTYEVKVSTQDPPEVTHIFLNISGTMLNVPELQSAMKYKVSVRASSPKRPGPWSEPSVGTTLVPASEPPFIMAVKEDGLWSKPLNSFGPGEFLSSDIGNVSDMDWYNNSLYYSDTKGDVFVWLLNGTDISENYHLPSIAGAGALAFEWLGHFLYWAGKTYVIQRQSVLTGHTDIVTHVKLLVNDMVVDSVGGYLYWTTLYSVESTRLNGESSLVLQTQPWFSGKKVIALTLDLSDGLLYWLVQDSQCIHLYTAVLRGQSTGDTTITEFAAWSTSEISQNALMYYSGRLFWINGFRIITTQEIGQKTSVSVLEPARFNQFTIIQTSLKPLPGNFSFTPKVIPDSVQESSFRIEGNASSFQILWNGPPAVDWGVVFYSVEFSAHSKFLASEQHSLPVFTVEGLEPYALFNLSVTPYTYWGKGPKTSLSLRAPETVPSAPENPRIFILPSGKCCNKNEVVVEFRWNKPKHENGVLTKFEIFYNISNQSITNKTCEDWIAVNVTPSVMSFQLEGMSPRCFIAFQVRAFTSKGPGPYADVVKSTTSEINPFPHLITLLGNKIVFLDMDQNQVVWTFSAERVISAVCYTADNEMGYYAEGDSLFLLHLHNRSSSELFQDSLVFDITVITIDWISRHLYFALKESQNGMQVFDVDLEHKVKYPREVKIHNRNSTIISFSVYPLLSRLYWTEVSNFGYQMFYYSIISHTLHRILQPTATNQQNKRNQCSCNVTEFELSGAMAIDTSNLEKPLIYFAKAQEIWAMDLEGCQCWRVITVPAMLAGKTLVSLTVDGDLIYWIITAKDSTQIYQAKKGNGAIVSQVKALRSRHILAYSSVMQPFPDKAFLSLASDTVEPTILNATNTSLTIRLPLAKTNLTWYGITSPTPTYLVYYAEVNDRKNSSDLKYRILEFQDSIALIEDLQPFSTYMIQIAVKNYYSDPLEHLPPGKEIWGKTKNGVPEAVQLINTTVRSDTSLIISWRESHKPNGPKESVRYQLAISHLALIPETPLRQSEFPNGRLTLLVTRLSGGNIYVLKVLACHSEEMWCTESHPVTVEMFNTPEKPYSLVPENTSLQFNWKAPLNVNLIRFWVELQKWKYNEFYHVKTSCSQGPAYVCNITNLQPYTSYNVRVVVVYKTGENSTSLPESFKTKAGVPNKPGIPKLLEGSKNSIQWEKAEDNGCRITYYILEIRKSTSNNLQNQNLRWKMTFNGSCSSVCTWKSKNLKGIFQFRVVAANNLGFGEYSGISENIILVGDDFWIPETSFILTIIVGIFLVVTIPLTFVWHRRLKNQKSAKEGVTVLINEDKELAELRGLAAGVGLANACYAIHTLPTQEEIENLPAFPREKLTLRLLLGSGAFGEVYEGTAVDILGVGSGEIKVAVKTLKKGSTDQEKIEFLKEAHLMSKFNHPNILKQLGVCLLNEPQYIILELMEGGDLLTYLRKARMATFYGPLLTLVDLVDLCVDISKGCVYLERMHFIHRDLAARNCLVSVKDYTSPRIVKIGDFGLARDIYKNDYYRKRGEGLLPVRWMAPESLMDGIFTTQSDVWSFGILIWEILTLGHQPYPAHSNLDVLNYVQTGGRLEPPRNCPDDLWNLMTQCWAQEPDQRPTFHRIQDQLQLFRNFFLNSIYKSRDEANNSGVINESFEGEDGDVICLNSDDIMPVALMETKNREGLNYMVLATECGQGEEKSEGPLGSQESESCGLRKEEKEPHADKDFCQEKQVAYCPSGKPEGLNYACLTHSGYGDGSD

As to `NC1CCC(Nc2nccc(-c3c[nH]c4ncccc34)n2)CC1` (centres undefined), the inhibition constant (Ki) in [1] was 0.2 µM (active); in test [2], 1.58 µM (active); in test [3], 0.00631 µM (active); in test [4] it was > 3.98 µM (inactive); on SRSF protein kinase 1, 1 µM (active); in [5] it was > 1.58 µM (inactive). Moreover, the inhibition constant Ki in test [6] was 2.51 µM (active); in test [7], 0.631 µM (active); in test [8] it was 1.26 µM (active); in test [9] it was > 1.58 µM (inactive); in test [10], > 2 µM (inactive); in [11], 7.94 µM (active). For the same molecule, the Ki in [12] is 1 µM (active); in [13], 0.316 µM (active); in [14], 0.794 µM (active); in [15], 0.00501 µM (active); in test [16], > 7.94 µM (inactive); in test [17], > 10 µM (inactive).

Consider `OCc1cc(-c2ccc3[nH]ncc3c2)on1`, for which the Ki was 12.6 µM (active) in test [18]; 12.6 µM (active) in test [3]; 50.1 µM (active) in [19]; 39.8 µM (active) in [20]; 3.98 µM (active) in test [21]; 20 µM (active) at Activin receptor type-1. For the same molecule, the inhibition constant Ki in [22] is 20 µM (active); on Aurora kinase A it was 15.8 µM (active); in test [23], 0.398 µM (active); in test [24], 10 µM (active); in [25], 5.01 µM (active); in [17], 39.8 µM (active). Also, in test [26], the Ki is 0.0316 µM (active).

For the molecule `COC(C(=O)N1Cc2[nH]nc(NC(=O)c3ccc(N4CCN(C)CC4)cc3)c2C1)c1ccccc1` (centres undefined), the Ki in test [1] is > 7.94 µM (inactive); in test [2], > 7.94 µM (inactive); in test [4], > 3.98 µM (inactive); at SRSF protein kinase 1 it was > 7.94 µM (inactive); in test [5] it was 0.0398 µM (active); in test [6], > 7.94 µM (inactive). Also, the Ki is > 10 µM (inactive) in test [7]; > 3.98 µM (inactive) in test [8]; 0.0501 µM (active) in [9]; 0.00794 µM (active) in test [10]; > 10 µM (inactive) in [11]; 0.0398 µM (active) in test [12]. Moreover, the Ki in [14] was > 1.58 µM (inactive); in [16], > 7.94 µM (inactive).

With `CC(C)(O)c1cn(-c2ccc3[nH]ncc3c2)nn1`, the Ki is 39.8 µM (active) in test [18]; 50.1 µM (active) in test [3]; 79.4 µM (active) in test [19]; 39.8 µM (active) in [20]; 12.6 µM (active) in test [21]; 79.4 µM (active) at Activin receptor type-1. For the same molecule, the Ki in test [22] is 31.6 µM (active); at Aurora kinase A, 25.1 µM (active); in [23], 0.794 µM (active); in [24], 20 µM (active); in test [13], 100 µM (active); in test [25], 10 µM (active). Also, the figures for the inhibition constant (Ki) in test [15] and in [26] were 39.8 µM (active) and 0.0794 µM (active), respectively.
